Reference: US5565444A, “Osteogenesis promoter and osteoporosis remedy” (LTT Institute Co., Ltd., priority 1993, dated 1996)
Read-outs that look alike come from different tables or passages of the source.

What was measured:
[1] = test system: Osteogenic Precursor Cells in Bone Marrow; assay: Effects on the number of osteogenic precursor cells in bone marrow, Experiment 2 (FCFU formation after subcutaneous administration); assay type: in vivo; details: 7 successive days, Lewis rat, N = 4
Description: (§1) After the invention compound was administered to a 7-weeks old Wistar or Lewis rat intraperitoneally (Experiment 1) or dorsi-subcutaneously (Experiment 2) for 7 successive days, the femurs and tibias were excised. Marrow cells were collected from the bones so obtained, followed by incubation in a 25-cm^2 culture flask for 7 days. For the incubation, the αMEM medium containing 15% fetal calf serum was used. Subsequent to giemsa or alkaline phosphatase staining, the number of fibroblast colony forming units on the culture flask was counted. The number of the fibroblast colony forming units (=FCFUs) is known to correlate with the in vitro ostogenesis. The total number of FCFUs and the number of FCFUs positive to alkaline phosphatase are shown in Table 1 and Table 2, respectively. Experiment 1:
Influence of the subcutaneous administration of
the invention compounds and testosterone for 7
successive days on the formation of FCFUs:
The number of FCFUs (after 7 days) (Lewis rat N = 4)

[2] = test system: osteocalcin; assay: Effects on serum osteocalcin (radioimmunoassay); assay type: in vivo, Wistar rat
Description: A 7-weeks old Wistar rat was intraperitoneally administered at 0.1 mg/kg with 11β-OH-Δ^4 -A for 7 successive days and the concentration of osteocalcin in the serum was measured by radioimmunoassay.

[3] = Improving effects on the bone mass reduction in postovariectomy osteoporosis (bone-salt amount by DXA); assay type: in vivo, female Wistar rat (ovariectomized); details: three times a week, 3 months, FIGS. 3-6
Description: From a 7-weeks old female Wistar rat, the ovaria were both excised. Three months after that, the administration of a drug was started. As the drug, 11β-OH-^4 -A or dihydroepiandrosterone (DHEA) was dorsisubcutaneously administered three times a week, each, at 1 mg/kg. After the drug administration was continued for 3 months, the femurs and shinbones were collected and the bone-salt amount was measured at three places, that is, the proximal end, diaphysis and distal end. The measurements of the bone-salt amount were conducted using an Aloka DCS-600 model by dual energy X-ray absorptiometry (DXA).

[4] = test system: musculus levator ani; assay: Anabolic action, Hershberge method (1); assay type: in vivo, castrated Wistar male rat; details: 0.3 mg/rat/day subcutaneous, 10 successive days; FIG. 8
Description: (§2) (1) In accordance with the Hershberge method, a castrated, 4-weeks old, Wistar, male rat (6 rats per group) was subcutaneously administered with 11-OH-Δ^4- A at 0.1-0.3 mg/rat/day for 10 successive days. Similarly, a vehicle (sesame oil) was administered to the Sham-operated group and a control group, and testosterone propionate (T.P.) was administered at 0.1 mg/rat/day as a positive control. On the day following the completion of the administration, the anterior lobe of prostate and the musculus levator ani were excised and weighed. From a change in the weight of the anterior lobe of the prostate and the musculus levator ani, androgenic action and anabolic action were studied.

[5] = test system: anterior lobe of prostate; assay: Androgenic action, Hershberge method (1); assay type: in vivo, castrated Wistar male rat; details: 10 successive days, FIG. 8
Description: as §2

[6] = test system: Osteogenic Precursor Cells in Bone Marrow; assay: Effects on the number of osteogenic precursor cells in bone marrow, Experiment 1 (FCFU formation after intraperitoneal administration); assay type: in vivo; details: 1 mg/kg intraperitoneal, 7 successive days; Wistar rat, N = 4; after 7 days incubation
Description: as §1
Influence of the intraperitoneal administration of
the invention compound at 1 mg/kg for 7 successive
days on the formation of FCFUs:
The number of FCFUs (after 7 days) (Wistar rat N = 4)

[7] = Acute toxicity test; details: in vivo, sc; subcutaneous, Wistar rat
Description: An acute toxicity test of the invention compound 11β-OH-Δ^4 -A was conducted in the following manner.
To a Wistar rat, 11β-OH-Δ^4 -A was subcutaneously administered in an amount considered to be an intoxicating dose. The conditions of the rat were observed and at the same time, the LD50 value was determined.

[8] = test system: osteogenic precursor cells; assay: Improving effects on the osteogenesis depression in postovariectomy osteoporosis (FCFU forming ability); assay type: in vivo, female Wistar rat (ovariectomized)
Description: From a 7-weeks old female Wistar rat, the ovaria were both excised and three months after that, administration of a drug was started. As the drug, 11β-OH-Δ^4 -A, was administered dorsi-subcutaneously three times a week, each, at 0.1 mg/kg or 1 mg/kg. Subsequent to the administration of the drug for 1 month, the femurs and shinbones were collected. From the right femur and both the shinbones, osteoblasts were collected and the formation of colonies (FCFUs) of osteogenic precursor cells was observed.

[9] = background report, cited from earlier work

C[C@]12C=CC(=O)C=C1CC[C@@H]1[C@@H]2[C@@H](O)C[C@]2(C)C(=O)CC[C@@H]12 [11β-OH-Δ^1,4 -A, 11β-hydroxy-1,4-androstadiene-3,17-dione]
The number of FCFUs positive for alkaline phosphatase ([1]; 0.1 mg/kg subcutaneous): 85 ± 11
The total FCFU number ([1]; 0.1 mg/kg subcutaneous): 178 ± 20
The number of FCFUs positive for alkaline phosphatase ([1]; 1 mg/kg subcutaneous): 117 ± 12
The total FCFU number ([1]; 1 mg/kg subcutaneous): 217 ± 22

C[C@]12CCC(=O)C=C1CC[C@@H]1[C@@H]2[C@@H](O)C[C@]2(C)C(=O)CC[C@@H]12 [11β-OH-Δ^4 -A, 11β-hydroxy-4-androstene-3,17-dione]
Serum osteocalcin concentration ([2]; 0.1 mg/kg intraperitoneal, 7 successive days): 72.6 ± 2.7 ng/mL
Serum osteocalcin concentration ([2]; 5 mg/kg): 75.5 ± 1.0 ng/mL
concentration of osteocalcin (in words) ([2]; successive administration): increase the concentration of osteocalcin
bone-salt amount at places of the femur ([3]; 1 mg/kg dorsi-subcutaneous): recovered to similar levels to those of the Sham-operated rat
bone-salt effects compared with dihydroepiandrosterone ([3]; 1 mg/kg each, dorsi-subcutaneous): more potent than those of dihydroepiandrosterone
weight of the musculus levator ani (anabolic action) [4]: An increase in the weight of the musculus levator ani
weight of the prostate ([5]; 0.1-0.3 mg/rat/day (0.6-1.8 mg/kg/day) subcutaneous): a significant increase in the weight of the prostate
Androgenic action ([5]; 0.1-0.3 mg/rat/day subcutaneous): very weak
The number of FCFUs positive for alkaline phosphatase [6]: 40 ± 11
The total FCFU number [6]: 160 ± 35
LD50 [7]: ≥ 1000 mg/kg
osteogenesis depression observed after the ovariectomy ([8]; 0.1 mg/kg thrice a week for a month): successfully normalized back the osteogenesis depression observed after the ovariectomy
FCFU formation ([8]; 0.1 mg/kg, dorsi-subcutaneous, three times a week, 1 month, FIG. 2): a marked increase in the FCFU formation
The number of FCFUs positive for alkaline phosphatase ([1]; 0.1 mg/kg subcutaneous): 96 ± 16
The total FCFU number ([1]; 0.1 mg/kg subcutaneous): 180 ± 9
The number of FCFUs positive for alkaline phosphatase ([1]; 1 mg/kg subcutaneous): 128 ± 19
The total FCFU number ([1]; 1 mg/kg subcutaneous): 189 ± 26

C[C@]12CC[C@H]3[C@@H](CCC4=CC(=O)CC[C@@]43C)[C@@H]1CC[C@@H]2O [Testosterone, reference compound]
The number of FCFUs positive for alkaline phosphatase ([1]; 1 mg/kg subcutaneous): 62 ± 5
The total FCFU number ([1]; 1 mg/kg subcutaneous): 149 ± 5

C[C@]12CC[C@H](O)CC1=CC[C@@H]1[C@@H]2CC[C@]2(C)C(=O)CC[C@@H]12 [dihydroepiandrosterone (DHEA), dihydroepiandrosterone]
effect on bone mass of ovariectomized animals [9]: extremely weak
effect on bone mass of ovariectomized animals ([9]; listed as dihydroepiandrosterone): bone-salt improving effects on the ovariectomized rat

estrogen
effect on bone mass of ovariectomized animals [9]: evident curative effect for a decrease in the bone mass of an ovariectomized animal
